Columns and labels:
hPPARα = target: T1, hPPARα (Homo sapiens, UniProt Q07869); assay: Gal4-hPPARα chimera transactivation in COS-7 cells (luciferase); format: cell-based; details: induction factor standardised to an internal reference, read-out: % hGal4-PPAR transactivation (10 μM) alpha
T1 construct: fragments of DNA amplified by PCR corresponding to the DEF domains of the human PPARα, PPARγ PPARδ nuclear receptors; expressed in transfected cells; host or cells: COS-7 (monkey kidney fibroblast line)
T1 sequence (Q07869 239-466 limits assumed): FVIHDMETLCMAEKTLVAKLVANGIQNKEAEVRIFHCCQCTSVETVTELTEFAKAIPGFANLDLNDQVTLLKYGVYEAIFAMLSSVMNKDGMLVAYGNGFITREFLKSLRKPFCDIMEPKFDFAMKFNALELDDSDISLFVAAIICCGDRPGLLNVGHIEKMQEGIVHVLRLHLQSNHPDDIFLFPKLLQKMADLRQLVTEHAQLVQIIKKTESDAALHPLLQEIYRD
Experimental: (§1) The PPAR activation was evaluated in vitro on a monkey kidney fibroblast line (COS-7) by measuring the transcriptional activity of chimeras constituted of the DNA binding domain of the Gal4 transcription factor of yeast and of the binding domain to the ligand of the different PPARs. The compounds were tested at doses between 0.01 and 100 μM on Gal4-PPARα, γ, δ chimeras. The induction factor (ratio between the luminescence induced by the compound and the luminescence induced by the control) was measured for each condition: the higher this factor, the more the compound has PPAR-activating properties.
(§2) The COS-7 cells from ATCC were cultivated in a DMEM medium supplemented with 10% (vol/vol) of foetal calf serum, 100 U/ml penicillin (Gibco, Paisley, UK) and 2 mM L-Glutamine (Gibco, Paisley, UK). The cells were incubated at 37° C. in a humid atmosphere containing 5% CO2.
(§3) The Gal4(RE)_TkpGL3, pGal4-hPPARα, pGal4-hPPARγ, pGal4-hPPARδ and pGal4-φ plasmids have been described in the literature (Raspe, Madsen et al. 1999). The pGal4-hPPARα, pGal4-hPPARγ and pGal4-hPPARδ constructs were obtained by cloning in the pGal4-φ vector of fragments of DNA amplified by PCR corresponding to the DEF domains of the human PPARα, PPARγ PPARδ nuclear receptors.
(§4) COS-7 cells were plated in 96 wells plates (5×10^4 cells/well) and transfected, in the presence of 10% foetal calf serum and 150 ng DNA per well, with a pGal4-PPAR/Gal4(RE)_TkpGL3 ratio of 1/10. The cells were then incubated for 24 hours with the compounds to be tested, without serum. At the end of the experiment, the cells were lysed and the luciferase activities were determined by means of Steady Glow Luciferase (Promega) according to the supplier's recommendations.
(§5) The inventive compounds were tested at 10 μM on the 3 PPAR isoforms. The results obtained are detailed in table (1). The transactivation measured is expressed as a response ratio versus an internal reference for each of the isoforms.
(§6) The compounds were tested at 10 μM on the Gal4-PPARα, γ, δ chimeras. The induction factor, i.e. the ratio between the luminescence induced by the compound and the luminescence induced by the control, was measured for each condition. It was then standardised in comparison to an internal reference and the results were then expressed in percentages : the higher the activation percentage, the more the compound has PPAR-activating properties.

hPPARγ = target: T2, hPPARγ (Homo sapiens, UniProt P37231); assay: Gal4-hPPARγ chimera transactivation in COS-7 cells (luciferase); format: cell-based; details: induction factor standardised to an internal reference, read-out: % hGal4-PPAR transactivation (10 μM) gamma
T2 construct: fragments of DNA amplified by PCR corresponding to the DEF domains of the human PPARα, PPARγ PPARδ nuclear receptors; expressed in transfected cells; host or cells: COS-7 (monkey kidney fibroblast line)
T2 sequence (P37231 238-503 limits assumed): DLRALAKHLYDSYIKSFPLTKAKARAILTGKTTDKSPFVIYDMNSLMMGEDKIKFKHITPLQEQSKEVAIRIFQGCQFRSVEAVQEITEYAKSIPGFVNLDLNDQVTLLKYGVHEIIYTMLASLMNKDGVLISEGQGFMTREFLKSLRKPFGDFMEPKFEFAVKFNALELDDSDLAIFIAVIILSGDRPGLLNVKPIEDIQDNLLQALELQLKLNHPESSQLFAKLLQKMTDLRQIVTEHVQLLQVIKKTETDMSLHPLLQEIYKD
Experimental: as §1, §2, §3, §4, §5, §6

hPPARδ = target: T3, hPPARδ (Homo sapiens, UniProt Q03181); assay: Gal4-hPPARδ chimera transactivation in COS-7 cells (luciferase); format: cell-based; details: induction factor standardised to an internal reference, read-out: % hGal4-PPAR transactivation (10 μM) delta
T3 construct: fragments of DNA amplified by PCR corresponding to the DEF domains of the human PPARα, PPARγ PPARδ nuclear receptors; expressed in transfected cells; host or cells: COS-7 (monkey kidney fibroblast line)
T3 sequence (Q03181 211-439 limits assumed): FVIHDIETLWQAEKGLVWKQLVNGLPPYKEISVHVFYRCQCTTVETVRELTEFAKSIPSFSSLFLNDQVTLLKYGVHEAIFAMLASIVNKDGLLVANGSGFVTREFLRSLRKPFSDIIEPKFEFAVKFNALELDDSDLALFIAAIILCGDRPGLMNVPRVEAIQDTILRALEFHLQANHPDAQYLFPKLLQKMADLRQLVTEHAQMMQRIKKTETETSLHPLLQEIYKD
Experimental: as §1, §2, §3, §4, §5, §6

[1] = target: T4, ATP-dependent potassium channels (K+ATP) (Rattus norvegicus, UniProt Q09429); assay: [3H]glibenclamide binding to ATP-dependent potassium channels of rat cerebral cortex; details: for inhibition at 0.3 µM: 1 h, 300 nM, specific displacement of [3H]glibenclamide 0.1 nM, read-out: KATP binding (300 nM)
T4 construct: the potassium channels derive from a rat's cerebral cortex; tissue CEREP; host or cells: rat cerebral cortex
T4 sequence (Q09429 whole entry): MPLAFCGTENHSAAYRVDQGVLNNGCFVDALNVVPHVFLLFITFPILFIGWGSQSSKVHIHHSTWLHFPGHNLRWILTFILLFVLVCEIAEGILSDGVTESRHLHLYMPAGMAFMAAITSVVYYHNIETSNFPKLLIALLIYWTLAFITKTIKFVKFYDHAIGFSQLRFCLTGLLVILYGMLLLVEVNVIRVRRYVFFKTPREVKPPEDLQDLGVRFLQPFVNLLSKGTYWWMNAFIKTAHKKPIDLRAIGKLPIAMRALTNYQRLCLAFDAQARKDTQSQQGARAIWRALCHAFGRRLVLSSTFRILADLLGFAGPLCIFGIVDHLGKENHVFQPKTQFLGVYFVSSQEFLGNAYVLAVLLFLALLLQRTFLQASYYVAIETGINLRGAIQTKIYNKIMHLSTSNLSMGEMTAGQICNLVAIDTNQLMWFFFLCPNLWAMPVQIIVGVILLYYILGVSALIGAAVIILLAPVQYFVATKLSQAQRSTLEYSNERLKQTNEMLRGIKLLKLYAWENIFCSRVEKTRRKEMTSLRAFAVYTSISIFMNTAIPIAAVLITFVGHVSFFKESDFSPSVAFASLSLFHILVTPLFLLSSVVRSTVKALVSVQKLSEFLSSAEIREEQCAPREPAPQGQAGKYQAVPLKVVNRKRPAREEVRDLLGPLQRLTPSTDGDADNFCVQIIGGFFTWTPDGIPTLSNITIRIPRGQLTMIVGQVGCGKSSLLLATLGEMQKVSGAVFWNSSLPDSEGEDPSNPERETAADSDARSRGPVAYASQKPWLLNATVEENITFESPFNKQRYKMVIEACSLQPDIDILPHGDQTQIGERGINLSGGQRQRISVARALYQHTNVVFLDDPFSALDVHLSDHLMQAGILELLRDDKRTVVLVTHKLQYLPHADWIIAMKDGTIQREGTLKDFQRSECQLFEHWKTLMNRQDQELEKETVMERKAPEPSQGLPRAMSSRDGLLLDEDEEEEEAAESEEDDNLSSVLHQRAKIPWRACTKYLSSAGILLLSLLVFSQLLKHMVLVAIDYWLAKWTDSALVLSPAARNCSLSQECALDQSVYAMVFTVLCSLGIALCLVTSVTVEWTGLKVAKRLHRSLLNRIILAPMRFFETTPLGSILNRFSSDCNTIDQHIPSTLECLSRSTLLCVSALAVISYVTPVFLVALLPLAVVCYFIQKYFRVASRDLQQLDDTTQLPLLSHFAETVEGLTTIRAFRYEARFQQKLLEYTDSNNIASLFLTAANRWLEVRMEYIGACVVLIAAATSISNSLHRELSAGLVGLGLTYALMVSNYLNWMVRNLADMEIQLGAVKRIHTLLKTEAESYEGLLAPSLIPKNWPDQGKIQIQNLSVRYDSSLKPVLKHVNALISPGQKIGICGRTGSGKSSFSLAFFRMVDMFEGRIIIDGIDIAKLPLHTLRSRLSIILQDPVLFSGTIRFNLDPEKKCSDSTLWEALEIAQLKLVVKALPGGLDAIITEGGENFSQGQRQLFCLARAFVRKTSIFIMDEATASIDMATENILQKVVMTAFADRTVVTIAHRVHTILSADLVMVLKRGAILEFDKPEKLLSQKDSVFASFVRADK
T4 sequence (P70673 whole entry partner): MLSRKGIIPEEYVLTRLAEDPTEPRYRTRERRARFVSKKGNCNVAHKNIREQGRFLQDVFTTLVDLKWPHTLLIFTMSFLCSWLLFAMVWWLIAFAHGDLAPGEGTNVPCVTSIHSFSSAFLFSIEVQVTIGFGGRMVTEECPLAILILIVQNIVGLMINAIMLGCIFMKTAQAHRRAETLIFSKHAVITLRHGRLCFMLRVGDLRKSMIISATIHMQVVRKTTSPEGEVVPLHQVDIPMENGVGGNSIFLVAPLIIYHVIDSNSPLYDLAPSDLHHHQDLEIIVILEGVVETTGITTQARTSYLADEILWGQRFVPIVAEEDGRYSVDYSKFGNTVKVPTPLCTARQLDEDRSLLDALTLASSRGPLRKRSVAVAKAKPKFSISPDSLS
Experimental: The results shown reflect the specific affinity of the inventive compounds on the ATP-dependent (K^+ATP) potassium channels. The specific binding measured corresponds to the difference between the total binding and the non-specific binding determined in the presence of an excess of non-marked reference ligand (glibenclamide 1 μM). The inventive compounds were tested at doses between 3 and 300 nM: the higher the percentage measured, the stronger the affinity of the compound for the ATP-dependent potassium channels.
The binding test was carried out at CEREP (Celle L'Evescault, France (86)) according to a protocol inspired by Angel et al. (Angel and Bidet 1991): the potassium channels derive from a rat's cerebral cortex and the reference compound is [^3H]glibenclamide at 0.1 nM. The protocol consists of incubation at 22° C. for one hour.

Row | Compound | activation at 10 µM (hPPARα) [%] | activation at 10 µM (hPPARγ) [%] | activation at 10 µM (hPPARδ) [%] | inhibition at 0.3 µM [1] [%] | IC50 ([1]; FIG. 2) [nM]
1 | CC(C)(Oc1ccc(CC(=O)NC(Cc2ccccc2)c2ccccc2N2CCCCC2)cc1)C(=O)O (stereo not drawn) [Compound 7, 2-[4-[1-(2-phenyl-1-(2-(1-piperidinyl)phenyl)ethyl)aminocarbonylmethyl]phenoxy]-2-methylpropanoic acid] | 40 | 34 | < 10 | 71 | –
2 | CCCCC(NC(=O)Cc1ccc(OC(C)(C)C(=O)O)cc1)c1ccccc1N1CCCCC1 (stereo not drawn) [Compound 10, 2-[4-[1-(1-(2-(1-piperidinyl)phenyl)pentyl)aminocarbonylmethyl]phenoxy]-2-methylpropanoic acid] | 11 | 49 | < 10 | – | 63
3 | CC(C)CC(NC(=O)Cc1ccc(OC(C)(C)C(=O)O)cc1)c1ccc(C(F)(F)F)cc1N1CCCCC1 (stereo not drawn) [Compound 21, 2-[4-[1-(3-methyl-1-(2-(1-piperidinyl)-4-(trifluoromethyl)phenyl)butyl)aminocarbonylmethyl]phenoxy]-2-methylpropanoic acid] | < 10 | 25 | 24 | 68 | –
4 | CC(C)CC(NC(=O)Cc1ccc(OCCCC(C)(C)C(=O)O)cc1)c1ccccc1N1CCCCC1 (stereo not drawn) [Compound 28, 5-[4-[1-(3-methyl-1-(2-(1-piperidinyl)phenyl)butyl)aminocarbonylmethyl]phenoxy]-2,2-dimethylpentanoic acid] | 35 | 17 | < 10 | 30 | –
5 | CC(C)CC(C(=O)NCc1ccc(OC(C)(C)C(=O)O)cc1)c1ccccc1N1CCCCC1 (stereo not drawn) [Compound 32, 2-[4-[1-(3-methyl-1-(2-(1-piperidinyl)phenyl)butyl)carbonylaminomethyl]phenoxy]-2-methylpropanoic acid] | < 10 | 25 | < 10 | 93 | –
6 | CCCCC(NC(=O)Cc1ccc(OC(C)(C)C(=O)O)cc1)c1ccc(Br)cc1N1CCCCC1 (stereo not drawn) [Compound 33, 2-[4-[1-(1-(2-(1-piperidinyl)-4-(bromo)phenyl)pentyl)aminocarbonylmethyl]phenoxy]-2-methylpropanoic acid] | < 10 | 42 | 23 | 51 | –
7 | CC(C)CC(NC(=O)C(C)c1ccc(OC(C)(C)C(=O)O)cc1)c1ccccc1N1CCCCC1 (stereo not drawn) [Compound 34, 2-[4-[1-methyl-1-[1-(3-methyl-1-(2-(1-piperidinyl)phenyl)butyl)aminocarbonyl]methyl]phenoxy]-2-methylpropanoic acid] | < 10 | 30 | < 10 | 81 | –
8 | CCCCC(NC(=O)Cc1ccc(OC(C)(C)C(=O)O)cc1)c1cccc(F)c1N1CCCCC1 (stereo not drawn) [Compound 45, 2-[4-[1-(1-(3-fluoro-2-(1-piperidinyl)phenyl)pentyl)aminocarbonylmethyl]phenoxy]-2-methylpropanoic acid] | 31 | 62 | < 10 | 66 | –

Other lines, results leading:

Row | activation at 10 µM (hPPARα) [%] | activation at 10 µM (hPPARγ) [%] | activation at 10 µM (hPPARδ) [%] | inhibition at 0.3 µM [1] [%] | IC50 ([1]; FIG. 2) [nM] | Compound
9 | < 10 | 40 | < 10 | 25 | – | CCCCC(NC(=O)Cc1ccccc1OCCCC(C)(C)C(=O)O)c1ccccc1N1CCCCC1 (stereo not drawn) [Compound 53, 5-[2-[1-(1-(2-(1-piperidinyl)phenyl)pentyl)aminocarbonylmethyl]phenoxy]-2,2-dimethylpentanoic acid]
10 | < 10 | 30 | < 10 | 79 | – | CCCCC(NC(=O)Cc1ccc(OC(C)(C)C(=O)O)cc1)c1ccccc1OC (stereo not drawn) [Compound 54, 2-[4-[1-(1-(2-(methoxy)phenyl)pentyl)aminocarbonylmethyl]phenoxy]-2-methylpropanoic acid]
11 | < 10 | 33 | < 10 | 27 | – | Cc1cccc(CC(NC(=O)Cc2ccc(OC(C)(C)C(=O)O)cc2)c2ccccc2N2CCCCC2)c1 (stereo not drawn) [Compound 55, 2-[4-[1-(2-(3-methylphenyl)-1-(2-(1-piperidinyl)phenyl)ethyl)aminocarbonylmethyl]phenoxy]-2-methylpropanoic acid]
12 | 29 | < 10 | < 10 | 18 | – | CC(C)CC(NC(=O)Cc1ccc(OCCCCC(C)(C)C(=O)O)cc1)c1ccccc1N1CCCCC1 (stereo not drawn) [Compound 57, 6-[4-[1-(3-methyl-1-(2-(1-piperidinyl)phenyl)butyl)aminocarbonylmethyl]phenoxy]-2,2-dimethylhexanoic acid]
13 | 22 | < 10 | < 10 | 73 | – | CC(C)CC(NC(=O)Cc1ccc(OC(C)(C)C(=O)NS(=O)(=O)C(F)(F)F)cc1)c1ccccc1N1CCCCC1 (stereo not drawn) [Compound 59, N-[trifluoromethylsulfonyl]-2-[4-[1-(3-methyl-1-(2-(1-piperidinyl)phenyl)butyl)aminocarbonylmethyl]phenoxy]-2-methylpropanamide]
14 | 20 | < 10 | < 10 | 23 | – | CCCCC(NC(=O)Cc1ccc(OC(C)(C)C(=O)NS(=O)(=O)c2ccccc2)cc1)c1ccccc1N1CCCCC1 (stereo not drawn) [Compound 61, N-[phenylsulfonyl]-2-[4-[1-(1-(2-(1-piperidinyl)phenyl)pentyl)aminocarbonylmethyl]phenoxy]-2-methylpropanamide]
15 | 26 | < 10 | < 10 | 67 | – | CCCCC(NC(=O)Cc1ccc(OC(C)(C)C(=O)NS(=O)(=O)Cc2ccccc2)cc1)c1ccccc1N1CCCCC1 (stereo not drawn) [Compound 63, N-[benzylsulfonyl]-2-[4-[1-(1-(2-(1-piperidinyl)phenyl)pentyl)aminocarbonylmethyl]phenoxy]-2-methylpropanamide]

From US20060079696A1, “Substituted compounds derived from N-(benzyl)phenylacetamide, preparation and uses” (GENFIT, priority 2004, published 2006)
